This experiment has as its system C2C12 myotubes. Kind of experiment: Mitochondrial biogenesis (mitochondrial mass, NAO probe). In kind it is cell-based. Conditions: FIG. 13. On the procedure:
Cell Culture: C2C12 and 3T3-L1 preadipocytes (American Type Culture Collection) were plated at a density of 8000 cells/cm^2 (10 cm^2 dish) and grown in Dulbecco's modified eagle's medium (DMEM) containing 10% fetal bovine serum (FBS), and antibiotics (growth medium) at 37° C. in 5% CO2. Confluent 3T3-L1 preadipocytes were induced to differentiate with a standard differentiation medium consisting of DMEM medium supplemented with 10% FBS, 250 nM dexamethasone, 0.5 mM 3-Isobutyl-1-methylxanthine (IBMX) and 1% penicillin-streptomycin. Preadipocytes were maintained in this differentiation medium for 3 days and subsequently cultured in growth medium. Cultures were re-fed every 2-3 days to allow >90% cells to reach fully differentiation before conducting chemical treatment. For differentiation of C2C12 cells, cells were grown to 100% confluence, transferred to differentiation medium (DMEM with 2% horse serum and 1% penicillin-streptomycin), and fed with fresh differentiation medium every day until myotubes were fully formed (3 days). Mitochondrial biogenesis: Mitochondrial biogenesis was assessed as change in mitochondrial mass, as previously described (2). The mitochondrial probe NAO (Invitrogen, Carlsbad, Calif.) was used to analyze mitochondrial mass by fluorescence (excitation 485 nm and emission 520 nm) and quantitative data was obtained with a fluorescence microplate reader (Synergy HT, BioTek Instruments, Winooski, Vt.). The intensity of fluorescence was expressed as arbitrary units per μg protein and normalized to control values within each assay.

Structures are written as SMILES.

Take `CC(C)C[C@H](N)C(=O)O` [Leucine, leucine]: the “increase in mitochondrial biogenesis (mitochondrial biomass)” value is given as “about 15%”.

The values above are taken from US9901573B2, “Compositions, methods, and kits for regulating energy metabolism” (NuSirt Sciences, Inc., priority 2012, dated 2018).
